Experimental data: ChEMBL document CHEMBL5154927, “Discovery of Novel Bicyclic Phenylselenyl-Containing Hybrids: An Orally Bioavailable, Potential, and Multiacting Class of Estrogen Receptor Modulators against Endocrine-Resistant Breast Cancer” (J Med Chem, 2022)
The source made the active and inactive calls. The rule behind the calls is not given here.

Tests used:
MCF7 [1] = assay: Induction of mitochondrial membrane potential loss in human MCF7 cells incubated for 48 hrs by JC-1 staining based flow cytometry; type: functional, cell-based; conditions: dose 1-4 µM, DDE = dose-dependent effect
LCC2 [2] = assay: Induction of apoptosis in tamoxifen-resistant human LCC2 cells assessed as increase in late apoptotic cells at 5 to 30 uM incubated for 48 hrs by annexin V-FITC staining based flow cytometry; type: functional, cell-based; conditions: dose 5-30 µM
MCF7 [3] = assay: Induction of apoptosis in human MCF7 cells assessed as decrease in Bcl2 level at 0.5 to 4 uM incubated for 48 hrs by western blot analysis; type: functional, cell-based; conditions: dose 0.5-4 µM
[4] = Antitumor activity against tamoxifen-resistant human LCC2 cells xenografted in BALB/C mouse assessed as tumor growth inhibition at 20 mg/kg, po measured every 2 days for 22 days; type: functional; conditions: LCC2, 528 h, time 22 day, read-out: TGI
MCF7 [5] = assay: Induction of mitochondrial membrane potential loss in human MCF7 cells at 4 uM incubated for 48 hrs by JC-1 staining based flow cytometry relative to control; type: functional
[6] = Half life in BALB/C mouse at 20 mg/kg, po by LC-MS/MS analysis; type: ADME, organism-based; conditions: in vivo
MCF7 [7] = assay: Induction of apoptosis in human MCF7 cells assessed as total apoptotic cells at 4 uM incubated for 48 hrs by annexin V-FITC staining based flow cytometry; type: functional
[8] = Toxicity in BALB/C mouse xenografted with human MCF7 cells assessed as morphological changes in liver at 10 to 20 mg/kg, po by hematoxylin and eosin staining based analysis; type: organism-based; conditions: in vivo, dose 10-20 mg/kg
MCF7 [9] = assay: Antitumor activity against human MCF7 cells xenografted in BALB/C mouse assessed as reduction of tumor weight at 20 mg/kg, po measured every 2 days for 34 days; type: functional, organism-based; conditions: time 34.0 day
[10] = Volume of distribution at steady state in BALB/C mouse at 5 mg/kg, iv by LC-MS/MS analysis; type: ADME, organism-based; conditions: in vivo, read-out: Vdss
[11] = Cmax in BALB/C mouse at 5 mg/kg, iv by LC-MS/MS analysis; type: ADME, organism-based; set-up: dose 5 mg/kg, route iv; conditions: in vivo
LCC2 [12] = assay: Induction of mitochondrial membrane potential loss in tamoxifen-resistant human LCC2 cells at 5 to 30 uM incubated for 48 hrs by JC-1 staining based flow cytometry; type: functional, cell-based; conditions: dose 5-30 µM
[13] = Toxicity in BALB/C mouse xenografted with tamoxifen-resistant human LCC2 cells assessed as effect on body weight at 20 mg/kg, po measured after 22 days; type: organism-based; conditions: in vivo, 528 h, time 22 day
MCF7 [14] = assay: Antitumor activity against human MCF7 cells xenografted in BALB/C mouse assessed as reduction of tumor volume at 20 mg/kg, po measured every 2 days for 34 days; type: functional, organism-based; conditions: time 34.0 day
MCF7 [15] = assay: Downregulation of hexokinase-1 expression in human MCF7 cell outer mitochondrial membrane at 1 to 16 uM measured after 24 hrs by Western blot analysis; type: functional; conditions: Mitochondria, dose 1-16 µM
[16] = AUC in BALB/C mouse at 20 mg/kg, po by LC-MS/MS analysis; type: ADME, organism-based; set-up: dose 20 mg/kg, route po; conditions: in vivo
LCC2 [17] = assay: Downregulation of hexokinase-1 expression in tamoxifen-resistant human LCC2 cell mitochondria at 20 uM measured after 24 hrs by DAPI staining based immunofluorescence microscopy; type: functional
LCC2 [18] = assay: Induction of ROS production in tamoxifen-resistant human LCC2 cells at 1 to 4 uM measured after 48 hrs by DCFH-DA staining based confocal laser scanning microscopic method; type: functional, cell-based; conditions: dose 1-4 µM
[19] = Toxicity in BALB/C mouse xenografted with tamoxifen-resistant human LCC2 cells assessed as mortality at 20 mg/kg, po measured after 22 days; type: organism-based; conditions: in vivo, 528 h, time 22 day
MCF7 [20] = assay: Induction of apoptosis in human MCF7 cells assessed as total apoptotic cells at 1 uM incubated for 48 hrs by annexin V-FITC staining based flow cytometry; type: functional

With `O=S(=O)(Oc1cccc2ccccc12)C1CC2OC1C(c1ccc([Se]c3ccccc3)cc1)=C2c1ccc(O)cc1` (stereo not given) the Activity (MCF7 [1]) was “Dde”, the Activity (LCC2 [2]) was “Active” and the Activity (MCF7 [3]) was “Active”. For the same compound, the inhibition in vivo at 20 mg/kg [4] was 57.3%, the Activity (MCF7 [5]) was 13.87% and the half-life [6] was 55.8 min. The Activity (MCF7 [7]) was 19.98%, the Activity [8] was “Non-Toxic” and the Activity (MCF7 [9]) was “Active”. The Vd [10] was 21.6 L/kg, the Cmax [11] was 1490 ng/mL and the Activity (LCC2 [12]) was “Active”. The Activity [13] was “Non-Toxic”, the Activity (MCF7 [14]) was “Active” and the Activity (MCF7 [15]) was “Active”. For the same compound, the AUC [16] was 1430 ng·h/mL, the Activity (LCC2 [17]) was “Active” and the Activity (LCC2 [18]) was “Active”. For the same compound, the Activity [19] was “Non-Toxic” and the Activity (MCF7 [20]) was 15.15%.
